Article PMC9078765, “Utilizing Network Pharmacology and Molecular Docking Integrated Surface Plasmon Resonance Technology to Investigate the Potential Targets and Mechanisms of Tripterygium wilfordii against Pulmonary Artery Hypertension” (Evidence-based Complementary and Alternative Medicine : eCAM, 2022)

Target: T1, CASP3 (Casp3) (Homo sapiens, UniProt P42574)
T1 construct: commercial recombinant protein, captured on Ni-NTA chip (His tag implied)
T1 sequence (P42574 29-175): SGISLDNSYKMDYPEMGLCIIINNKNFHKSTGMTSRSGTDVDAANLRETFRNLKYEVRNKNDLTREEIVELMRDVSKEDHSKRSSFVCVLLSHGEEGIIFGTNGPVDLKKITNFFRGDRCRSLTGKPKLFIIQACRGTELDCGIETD
T1 sequence (P42574 176-277): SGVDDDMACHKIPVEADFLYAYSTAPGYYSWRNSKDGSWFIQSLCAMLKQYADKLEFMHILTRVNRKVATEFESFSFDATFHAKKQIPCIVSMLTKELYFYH
Test: SPR (OpenSPR, NTA chip, one-to-one model)
Assay type: binding
Excerpt: SPR (OpenSPR, NTA chip, one-to-one model) on CASP3 (Casp3)

With `O=c1c(O)c(-c2ccc(O)cc2)oc2cc(O)cc(O)c12` [Kaempferol] the Kd was 7.65 µM.
